Common to all, as to assay: Kinase selectivity, scanMAX Kinase assay panel (DiscoverX), % control at 1 uM
What all share (format): binding

For assay [1], the target named is T1, scanMAX Kinase assay panel (Homo sapiens, UniProt O00329).
T1 construct: purchased DiscoverX
T1 sequence (O00329 1-1044): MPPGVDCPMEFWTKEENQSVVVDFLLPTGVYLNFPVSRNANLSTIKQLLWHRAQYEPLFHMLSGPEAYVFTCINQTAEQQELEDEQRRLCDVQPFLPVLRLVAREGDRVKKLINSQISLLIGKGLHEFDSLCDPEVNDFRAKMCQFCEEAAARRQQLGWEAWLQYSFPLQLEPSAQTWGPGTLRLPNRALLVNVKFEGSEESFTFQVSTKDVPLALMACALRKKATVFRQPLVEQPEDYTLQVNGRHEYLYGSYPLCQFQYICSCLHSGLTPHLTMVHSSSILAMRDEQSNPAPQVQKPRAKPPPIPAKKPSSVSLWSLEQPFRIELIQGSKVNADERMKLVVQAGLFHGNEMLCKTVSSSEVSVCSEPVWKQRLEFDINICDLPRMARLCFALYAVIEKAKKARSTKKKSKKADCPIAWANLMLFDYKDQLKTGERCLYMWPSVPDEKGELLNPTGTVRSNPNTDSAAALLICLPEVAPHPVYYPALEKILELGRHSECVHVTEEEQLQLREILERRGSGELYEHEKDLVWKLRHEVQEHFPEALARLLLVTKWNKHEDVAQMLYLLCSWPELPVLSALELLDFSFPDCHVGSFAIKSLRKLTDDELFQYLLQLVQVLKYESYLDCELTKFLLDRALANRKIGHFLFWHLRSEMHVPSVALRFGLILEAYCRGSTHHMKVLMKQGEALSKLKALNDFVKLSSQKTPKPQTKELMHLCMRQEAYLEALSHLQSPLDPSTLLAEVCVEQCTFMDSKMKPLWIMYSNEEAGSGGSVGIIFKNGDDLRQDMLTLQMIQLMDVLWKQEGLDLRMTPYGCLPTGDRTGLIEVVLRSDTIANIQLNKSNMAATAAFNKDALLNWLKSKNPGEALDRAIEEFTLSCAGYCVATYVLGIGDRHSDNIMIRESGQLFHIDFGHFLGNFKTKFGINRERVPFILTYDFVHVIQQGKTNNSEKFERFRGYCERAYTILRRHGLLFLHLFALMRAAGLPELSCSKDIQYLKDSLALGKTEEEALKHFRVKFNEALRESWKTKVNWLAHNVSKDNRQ
The note with it: PIK3CD; 1 uM; read-out: Percent Control (%). In a few lines:
(§1)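 Single-point screen at 1 uM compound in DMSO. Lower % control means stronger inhibition, with the cutoff for activity set at <35%.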

In assay [2] the target is T2, scanMAX Kinase assay panel (Homo sapiens, UniProt P06213).
T2 construct: purchased DiscoverX
T2 sequence (P06213 28-1382): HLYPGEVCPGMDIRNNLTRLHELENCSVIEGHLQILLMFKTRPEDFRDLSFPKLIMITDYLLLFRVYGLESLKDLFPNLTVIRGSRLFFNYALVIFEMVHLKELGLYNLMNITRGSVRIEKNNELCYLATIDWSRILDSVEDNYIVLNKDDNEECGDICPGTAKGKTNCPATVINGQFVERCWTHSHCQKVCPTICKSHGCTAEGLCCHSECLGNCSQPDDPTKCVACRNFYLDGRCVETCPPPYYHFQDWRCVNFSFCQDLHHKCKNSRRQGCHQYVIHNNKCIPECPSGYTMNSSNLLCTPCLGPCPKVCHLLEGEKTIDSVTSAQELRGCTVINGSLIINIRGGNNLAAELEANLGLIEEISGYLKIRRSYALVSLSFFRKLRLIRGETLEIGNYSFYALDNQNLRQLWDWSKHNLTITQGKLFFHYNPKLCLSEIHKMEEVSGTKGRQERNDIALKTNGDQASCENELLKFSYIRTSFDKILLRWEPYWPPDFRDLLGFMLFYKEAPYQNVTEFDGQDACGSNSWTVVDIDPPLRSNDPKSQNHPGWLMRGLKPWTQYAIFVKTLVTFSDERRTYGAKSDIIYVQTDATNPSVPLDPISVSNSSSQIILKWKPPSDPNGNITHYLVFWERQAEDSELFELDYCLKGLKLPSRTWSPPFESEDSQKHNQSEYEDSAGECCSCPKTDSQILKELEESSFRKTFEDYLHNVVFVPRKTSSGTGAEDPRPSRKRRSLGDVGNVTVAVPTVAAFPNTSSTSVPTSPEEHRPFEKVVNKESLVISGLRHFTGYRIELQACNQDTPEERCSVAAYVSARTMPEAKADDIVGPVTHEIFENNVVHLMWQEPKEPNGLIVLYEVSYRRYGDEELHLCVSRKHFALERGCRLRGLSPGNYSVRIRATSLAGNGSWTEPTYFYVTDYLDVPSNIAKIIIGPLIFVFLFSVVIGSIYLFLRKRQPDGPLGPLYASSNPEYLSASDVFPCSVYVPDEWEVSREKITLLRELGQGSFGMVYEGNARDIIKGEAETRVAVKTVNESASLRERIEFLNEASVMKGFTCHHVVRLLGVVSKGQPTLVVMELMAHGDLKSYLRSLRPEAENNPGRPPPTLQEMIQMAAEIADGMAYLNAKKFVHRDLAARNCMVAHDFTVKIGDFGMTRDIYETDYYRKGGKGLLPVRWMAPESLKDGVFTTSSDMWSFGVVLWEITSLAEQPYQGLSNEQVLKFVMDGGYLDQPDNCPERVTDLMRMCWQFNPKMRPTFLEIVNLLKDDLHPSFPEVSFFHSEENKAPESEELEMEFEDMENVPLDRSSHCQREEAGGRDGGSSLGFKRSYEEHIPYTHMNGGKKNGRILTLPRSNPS
Particulars: INSR; 1 uM; read-out: Percent Control (%). In a few lines:
as §1

Assay [3] addresses T3, scanMAX Kinase assay panel (Homo sapiens, UniProt Q9NRP7).
T3 construct: purchased DiscoverX
T3 sequence (Q9NRP7 1-1315): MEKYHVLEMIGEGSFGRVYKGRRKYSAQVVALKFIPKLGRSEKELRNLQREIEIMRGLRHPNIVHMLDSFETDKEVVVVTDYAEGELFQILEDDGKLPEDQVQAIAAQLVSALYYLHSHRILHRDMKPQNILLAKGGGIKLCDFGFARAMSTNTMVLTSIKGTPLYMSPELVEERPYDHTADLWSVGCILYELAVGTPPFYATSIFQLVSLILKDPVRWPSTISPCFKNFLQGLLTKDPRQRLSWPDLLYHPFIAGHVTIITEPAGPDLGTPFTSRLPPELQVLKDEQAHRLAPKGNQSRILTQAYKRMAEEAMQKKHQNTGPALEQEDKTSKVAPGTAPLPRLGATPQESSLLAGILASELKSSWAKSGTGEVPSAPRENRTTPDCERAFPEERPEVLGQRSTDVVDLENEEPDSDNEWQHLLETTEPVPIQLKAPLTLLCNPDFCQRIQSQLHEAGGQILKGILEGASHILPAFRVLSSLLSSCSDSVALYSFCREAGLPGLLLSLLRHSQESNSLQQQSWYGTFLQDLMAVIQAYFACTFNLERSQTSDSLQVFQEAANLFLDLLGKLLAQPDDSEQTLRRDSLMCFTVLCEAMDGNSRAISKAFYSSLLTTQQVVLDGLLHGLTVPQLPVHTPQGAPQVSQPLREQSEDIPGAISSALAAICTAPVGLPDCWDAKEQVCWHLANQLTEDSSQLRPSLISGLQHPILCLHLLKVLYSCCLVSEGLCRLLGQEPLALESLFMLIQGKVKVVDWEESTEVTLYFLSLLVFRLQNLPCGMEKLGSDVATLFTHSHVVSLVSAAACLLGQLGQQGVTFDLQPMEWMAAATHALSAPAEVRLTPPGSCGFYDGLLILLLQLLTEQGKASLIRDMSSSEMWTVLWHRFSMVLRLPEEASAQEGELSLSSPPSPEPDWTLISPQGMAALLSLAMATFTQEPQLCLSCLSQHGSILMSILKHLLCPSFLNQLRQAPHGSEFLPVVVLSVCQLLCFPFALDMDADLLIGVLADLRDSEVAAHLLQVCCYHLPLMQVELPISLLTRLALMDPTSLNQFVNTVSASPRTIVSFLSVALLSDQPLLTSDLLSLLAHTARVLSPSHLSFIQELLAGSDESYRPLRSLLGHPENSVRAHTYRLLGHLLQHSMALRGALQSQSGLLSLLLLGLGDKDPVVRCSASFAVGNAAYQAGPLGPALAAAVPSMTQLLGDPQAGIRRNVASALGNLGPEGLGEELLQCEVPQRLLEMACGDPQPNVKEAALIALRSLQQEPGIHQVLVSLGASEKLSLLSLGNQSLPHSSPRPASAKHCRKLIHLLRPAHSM
Particulars: STK36; 1 uM; read-out: Percent Control (%). In a few lines:
as §1

Assay [4] deals with T4, scanMAX Kinase assay panel (Homo sapiens, UniProt P53779).
T4 construct: purchased DiscoverX
T4 sequence (P53779 whole entry): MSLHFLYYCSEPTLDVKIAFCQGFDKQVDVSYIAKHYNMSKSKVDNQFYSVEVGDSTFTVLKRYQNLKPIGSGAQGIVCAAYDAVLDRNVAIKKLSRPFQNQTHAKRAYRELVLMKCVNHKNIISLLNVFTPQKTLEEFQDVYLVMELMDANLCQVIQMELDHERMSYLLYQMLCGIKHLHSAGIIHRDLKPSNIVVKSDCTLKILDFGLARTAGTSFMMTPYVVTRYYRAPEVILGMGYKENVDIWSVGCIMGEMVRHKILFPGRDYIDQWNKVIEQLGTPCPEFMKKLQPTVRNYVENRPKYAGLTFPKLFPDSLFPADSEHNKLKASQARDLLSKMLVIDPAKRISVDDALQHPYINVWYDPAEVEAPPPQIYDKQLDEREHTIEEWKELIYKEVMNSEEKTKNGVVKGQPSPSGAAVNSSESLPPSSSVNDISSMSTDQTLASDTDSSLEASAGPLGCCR
The note with it: JNK3; 1 uM; read-out: Percent Control (%). In a few lines:
as §1

Assay [5] deals with T5, scanMAX Kinase assay panel (Homo sapiens, UniProt P00533, G719S).
T5 construct: purchased DiscoverX
T5 sequence (P00533 25-1210 G719S): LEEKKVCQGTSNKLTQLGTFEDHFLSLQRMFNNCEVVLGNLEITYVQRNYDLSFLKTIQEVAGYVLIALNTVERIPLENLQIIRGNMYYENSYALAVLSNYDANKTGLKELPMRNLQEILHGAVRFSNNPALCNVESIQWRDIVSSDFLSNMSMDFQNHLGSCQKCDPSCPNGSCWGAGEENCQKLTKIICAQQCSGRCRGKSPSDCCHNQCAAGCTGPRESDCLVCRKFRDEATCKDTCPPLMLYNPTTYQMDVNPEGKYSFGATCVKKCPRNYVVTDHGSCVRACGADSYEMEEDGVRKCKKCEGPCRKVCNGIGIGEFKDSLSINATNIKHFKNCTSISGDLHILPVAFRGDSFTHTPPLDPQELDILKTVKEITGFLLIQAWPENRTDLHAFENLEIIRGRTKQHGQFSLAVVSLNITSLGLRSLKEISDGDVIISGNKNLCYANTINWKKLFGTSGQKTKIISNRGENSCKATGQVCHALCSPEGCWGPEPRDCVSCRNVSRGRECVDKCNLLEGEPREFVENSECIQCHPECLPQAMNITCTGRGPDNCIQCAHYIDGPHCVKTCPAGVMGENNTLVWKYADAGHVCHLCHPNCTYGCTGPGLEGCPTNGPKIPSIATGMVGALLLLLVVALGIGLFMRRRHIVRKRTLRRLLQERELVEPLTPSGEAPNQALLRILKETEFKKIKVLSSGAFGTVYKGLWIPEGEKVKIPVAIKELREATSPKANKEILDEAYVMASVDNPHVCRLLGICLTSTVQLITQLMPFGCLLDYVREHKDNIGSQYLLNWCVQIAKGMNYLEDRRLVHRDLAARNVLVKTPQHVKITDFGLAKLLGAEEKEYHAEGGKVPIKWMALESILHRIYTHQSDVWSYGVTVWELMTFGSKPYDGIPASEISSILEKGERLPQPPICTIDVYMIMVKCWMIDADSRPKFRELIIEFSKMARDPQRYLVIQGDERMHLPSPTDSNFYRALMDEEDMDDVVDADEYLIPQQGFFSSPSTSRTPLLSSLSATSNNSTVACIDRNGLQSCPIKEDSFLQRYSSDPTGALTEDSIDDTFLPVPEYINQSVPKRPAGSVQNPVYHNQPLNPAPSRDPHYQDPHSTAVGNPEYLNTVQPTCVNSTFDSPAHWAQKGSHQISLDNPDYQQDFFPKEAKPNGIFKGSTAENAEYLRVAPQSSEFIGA
Particulars: EGFR (G719S); 1 uM; read-out: Percent Control (%). A digest of the protocol:
as §1

Assay [6] addresses T6, scanMAX Kinase assay panel (Homo sapiens, UniProt P00519, T315I).
T6 construct: purchased DiscoverX
The note with it: 1 uM, read-out: Percent Control (%). A digest of the protocol:
as §1

SMILES strings stand for the structures. Read-outs that look alike come from different tables or passages of the source.

With `Cc1ccc(C(=O)Nc2ccc(CN3CCN(C)CC3)c(C(F)(F)F)c2)cc1C#Cc1cnc2c(Nc3cnn(C)c3)cccn12` [Example 1, 4-methyl-3-((8-((1-methyl-1H-pyrazol-4-yl)amino)imidazo[1,2-a]pyridin-3-yl)ethynyl)-N-(4-((4-methylpiperazin-1-yl)methyl)-3-(trifluoromethyl)phenyl)benzamide], the remaining binding at 1 µM in assay [1] was 89%; in assay [2], 54%; in assay [3] it was 1%; in assay [4], 19%; in assay [5] it was 1%; in assay [6] (ABL1 (T315I)-nonphosphorylated), 1%. The remaining binding at 1 µM in assay [6] (ABL1 (T315I)-phosphorylated) came out at 1%.
In the case of `Cc1cn(-c2cc(NC(=O)c3ccc(C)c(C#Cc4cnc5c(Nc6cnn(C)c6)cccn45)c3)cc(C(F)(F)F)c2)cn1` [Example 12, 4-methyl-N-(3-(4-methyl-1H-imidazol-1-yl)-5-(trifluoromethyl)phenyl)-3-((8-((1-methyl-1H-pyrazol-4-yl)amino)imidazo[1,2-a]pyridin-3-yl)ethynyl)benzamide], the remaining binding at 1 µM in assay [1] worked out at 100%; in assay [2] it was 99%; in assay [3] it was 89%; in assay [4], 98%; in assay [5], 20%; in assay [6] (ABL1 (T315I)-nonphosphorylated) it was 15%. In assay [6] (ABL1 (T315I)-phosphorylated), the remaining binding at 1 µM turned out to be 15%.
For `Cc1ccc(NC(=O)C2(C(=O)Nc3ccc(F)cc3)CC2)cc1C#Cc1cnc2c(Nc3cnn(C(C)C)c3)cccn12` [Example 78], the remaining binding at 1 µM in assay [1], in assay [2], in assay [3], in assay [4], in assay [5] and in assay [6] (ABL1 (T315I)-nonphosphorylated) was 100% in each case. In addition, the remaining binding at 1 µM in assay [6] (ABL1 (T315I)-phosphorylated) was found to be 100%.

The values are drawn from US10870647B2, “Imidazopyridine derivative, method for preparing same, and pharmaceutical composition containing same as active ingredient for preventing or treating cancer” (DAEGU-GYEONGBUK MEDICAL INNOVATION FOUNDATION, priority 2016, dated 2020).
